Reference: ChEMBL document CHEMBL3217491, “Design, synthesis and biological evaluation of imidazopyridine/pyrimidine-chalcone derivatives as potential anticancer agents” (2010)
Calls of active or inactive are those of the source. No cut-off for these calls is given here.

How the values were obtained:
[1] = Growth inhibition of human LOXIMVI cells after 48 hrs by SRB assay; format: functional; conditions: LOX IMVI
SNB-19 = test: Growth inhibition of human SNB19 cells after 48 hrs by SRB assay; format: functional; conditions: SNB-19, 48 h
HOP-62 = test: Growth inhibition of human HOP62 cells after 48 hrs by SRB assay; format: functional; conditions: HOP-62, 48 h
786-0 = test: Growth inhibition of human 786-0 cells after 48 hrs by SRB assay; format: functional; conditions: 786-0, 48 h
MCF7 [2] = test: Cell cycle arrest in human MCF7 cells assessed as accumulation at G0/G1 phase at 4 uM after 24 hrs by propidium iodide staining-based flow cytometry (reference value: 64.04%); format: functional
[3] = Growth inhibition of human BT549 cells after 48 hrs by SRB assay; format: functional; conditions: BT-549, 48 h
COLO 205 = test: Growth inhibition of human COLO205 cells after 48 hrs by SRB assay; format: functional; conditions: COLO 205, 48 h
[4] = Growth inhibition of human SF295 cells after 48 hrs by SRB assay; format: functional; conditions: SF-295, 48 h
T47D = test: Growth inhibition of human T47D cells after 48 hrs by SRB assay; format: functional
MCF7 [5] = test: Induction of apoptosis in human MCF7 cells expressing P21 promoter -145/+8 with luciferase gene assessed as upregulation of p21 protein expression at 4 uM by Western blot analysis relative to control; format: functional, cell-based
[6] = Growth inhibition of human OVCAR8 cells after 48 hrs by SRB assay; format: functional; conditions: OVCAR-8, 48 h
[7] = Growth inhibition of human OVCAR5 cells after 48 hrs by SRB assay; format: functional; conditions: OVCAR-5, 48 h
MCF7 [8] = test: Cell cycle arrest in human MCF7 cells assessed as accumulation at S phase at 4 uM after 24 hrs by propidium iodide staining-based flow cytometry (reference value: 20.17%); format: functional
SK-MEL-5 = test: Growth inhibition of human SK-MEL-5 cells after 48 hrs by SRB assay; format: functional; conditions: SK-MEL-5, 48 h
IGROV-1 = test: Growth inhibition of human IGROV1 cells after 48 hrs by SRB assay; format: functional; conditions: IGROV-1, 48 h
[9] = Growth inhibition of human UACC62 cells after 48 hrs by SRB assay; format: functional; conditions: UACC-62, 48 h
HT-29 = test: Growth inhibition of human HT-29 cells after 48 hrs by SRB assay; format: functional; conditions: HT-29, 48 h
RPMI-8226 = test: Growth inhibition of human RPMI8226 cells after 48 hrs by SRB assay; format: functional; conditions: RPMI-8226, 48 h

COc1ccc(C(=O)/C=C/c2c(C(F)(F)F)nc3ccccn23)cc1OC gave a GI50 [1] of 0.95 µM, a GI50 (SNB-19) of 1.59 µM and a GI50 (HOP-62) of 3.01 µM. It also gave a GI50 (786-0) of 2.87 µM, an Activity (MCF7 [2]) of 97.86% and a GI50 [3] of 2.59 µM. For the same molecule, the GI50 (COLO 205) was 1.92 µM, the GI50 [4] was 3.15 µM and the GI50 (T47D) was 1.43 µM. For the same molecule, the Activity (MCF7 [5]) was “Active”, the GI50 [6] was 1.31 µM and the GI50 [7] was 3.79 µM. For the same molecule, the Activity (MCF7 [8]) was 1.83%, the GI50 (SK-MEL-5) was 1.63 µM and the GI50 (IGROV-1) was 0.44 µM. For the same molecule, the GI50 [9] was 2.22 µM, the GI50 (HT-29) was 1.48 µM and the GI50 (RPMI-8226) was 0.29 µM.
